The test system of this experiment is CFTR mRNA. The experiment can be described thus: CFTR mRNA qPCR, HNE-CF (F508del) cultures. It is filed as cell-based, human. The note with it: qPCR (CFTR/Actin RNA), HNE-CF (homozygous F508del), 10 μM, 24 hours, vs DMSO. On the procedure:
Primary human airway epithelial cells of nasal origin (HNEs) from CF donors homozygous for the F508del mutation (HNE CF) and non-CF donors (HNE WT) were purchased from Epithelix Sàrl (Geneva, Switzerland). The cells were cultured and differentiated as previously described (Pranke et al. (2017) Sci Rep. 7(1):7375). The primary cells were apically mucous washed for 30 minutes prior to treatment with the amplifier PTI-CH (1, 3, or 10 μM) and DMSO for 24 hours.
For isolation of RNA from cells, the filters were washed with PBS at room temperature. Total RNA was isolated using the Qiagen RNeasy Plus Universal Mini kit (Qiagen, Oslo, Norway). […] The RNA was quantified by NanoDrop (Thermo Fisher Scientific).
For Reverse transcription, 500 ng of total RNA was used for cells and 150 ng of RNA for nasal brushing sample was reverse transcribed using a High-Capacity Transcription Kit (Thermo Fisher Scientific) according to manufacturer's protocol. The CFTR transcript levels were measured using a human-specific CFTR primer (Catalog Number Hs00357011_ml, FAM-labeled Life Technologies). […]
To further confirm this finding, human nasal epithelial (HNE) cultures obtained from a non-CF (HNE-WT) or CF (HNE-F508del) donor were treated with and amplifier compound. Following 24-hour treatment period, filters were analyzed for either mRNA or protein analyses. […]

Turning to `O=C(NCCCn1nncc1CO)c1cc(-c2ccccc2)on1` [PTI-CH], the “increase in CFTR mRNA expression” value is given as “approximately 3 fold”.
